Counter-ions that a name gives are not always drawn.

A short description of the first data set: Hygroscopicity, cup method (weight change). Format: physicochemical. The note with it: weight-increasing rate, 25° C., 50 to 60% RH, 15 minutes; crystals dried at 40° C. under vacuum; hydrochloride. Here is the method: Determined by the following cup method. To be specific, about 15 to 20 mg of the sample was put in a cylindrical cup having a diameter of 6 mm and a depth of 6 mm and left standing at a fixed temperature (25° C.) and relative humidity (50 to 60% RH) for 15 minutes to measure a weight change, whereby the hygroscopicity was evaluated.
In the following respective examples, a weight-increasing rate of 0.40% or more is shown by an evaluation criterion that the hygroscopicity is large (−); a weight-increasing rate of 0.20% or more and less than 0.40% is shown by an evaluation criterion that the hygroscopicity is ;intermediate (±); and a weight-increasing rate of less than 0.20% is shown by an evaluation criterion that the hygroscopicity is small: (+).
For the compound `COc1cccc2c1C(=O)c1c(O)c3c(c(O)c1C2=O)C[C@@](O)(C(=O)CO)C[C@@H]3O[C@H]1C[C@H](N)[C@H](O)[C@H](C)O1` [Example 1, doxorubicin hydrochloride], the Hygroscopicity entry is reported as “− (a weight-increasing rate of 0.40% or more is shown by an evaluation criterion that the hygroscopicity is large (−))”.
`COc1cccc2c1C(=O)c1c(O)c3c(c(O)c1C2=O)C[C@@](O)(C(=O)CO)C[C@@H]3O[C@H]1C[C@H](N)[C@H](O)[C@H](C)O1` [Example 3, doxorubicin hydrochloride]: the Hygroscopicity entry is “− (a weight-increasing rate of 0.40% or more is shown by an evaluation criterion that the hygroscopicity is large (−))”.
With `COc1cccc2c1C(=O)c1c(O)c3c(c(O)c1C2=O)C[C@@](O)(C(=O)CO)C[C@@H]3O[C@H]1C[C@H](N)[C@H](O)[C@H](C)O1` [Example 4, doxorubicin hydrochloride], the Hygroscopicity entry was “− (a weight-increasing rate of 0.40% or more is shown by an evaluation criterion that the hygroscopicity is large (−))”.
For `COc1cccc2c1C(=O)c1c(O)c3c(c(O)c1C2=O)C[C@@](O)(C(=O)CO)C[C@@H]3O[C@H]1C[C@H](N)[C@H](O)[C@H](C)O1` [Example 8, doxorubicin hydrochloride], the Hygroscopicity result is “− (a weight-increasing rate of 0.40% or more is shown by an evaluation criterion that the hygroscopicity is large (−))”.
As to `COc1cccc2c1C(=O)c1c(O)c3c(c(O)c1C2=O)C[C@@](O)(C(=O)CO)C[C@@H]3O[C@H]1C[C@H](N)[C@H](O)[C@H](C)O1` [Example 9, doxorubicin hydrochloride], the Hygroscopicity result is on record as “− (a weight-increasing rate of 0.40% or more is shown by an evaluation criterion that the hygroscopicity is large (−))”.
Consider `COc1cccc2c1C(=O)c1c(O)c3c(c(O)c1C2=O)C[C@@](O)(C(=O)CO)C[C@@H]3O[C@H]1C[C@H](N)[C@H](O)[C@H](C)O1` [Example 13, doxorubicin hydrochloride], for which the Hygroscopicity entry is “± (a weight-increasing rate of 0.20% or more and less than 0.40% is shown by an evaluation criterion that the hygroscopicity is ;intermediate (±))”.
Take `COc1cccc2c1C(=O)c1c(O)c3c(c(O)c1C2=O)C[C@@](O)(C(=O)CO)C[C@@H]3O[C@H]1C[C@H](N)[C@H](O)[C@H](C)O1` [Example 14, doxorubicin hydrochloride]: the Hygroscopicity entry is “± (a weight-increasing rate of 0.20% or more and less than 0.40% is shown by an evaluation criterion that the hygroscopicity is ;intermediate (±))”.
Same read-out and setting: as for `COc1cccc2c1C(=O)c1c(O)c3c(c(O)c1C2=O)C[C@@](O)(C(=O)CO)C[C@@H]3O[C@H]1C[C@H](N)[C@H](O)[C@H](C)O1` [Example 15, doxorubicin hydrochloride], the entry is “− (a weight-increasing rate of 0.40% or more is shown by an evaluation criterion that the hygroscopicity is large (−))”.
`COc1cccc2c1C(=O)c1c(O)c3c(c(O)c1C2=O)C[C@@](O)(C(=O)CO)C[C@@H]3O[C@H]1C[C@H](N)[C@H](O)[C@H](C)O1` [Example 16, doxorubicin hydrochloride]: the Hygroscopicity entry is “± (a weight-increasing rate of 0.20% or more and less than 0.40% is shown by an evaluation criterion that the hygroscopicity is ;intermediate (±))”.
On the same count and under the same terms, the value for `COc1cccc2c1C(=O)c1c(O)c3c(c(O)c1C2=O)C[C@@](O)(C(=O)CO)C[C@@H]3O[C@H]1C[C@H](N)[C@H](O)[C@H](C)O1` [Example 17, doxorubicin hydrochloride] was “− (a weight-increasing rate of 0.40% or more is shown by an evaluation criterion that the hygroscopicity is large (−))”.
`COc1cccc2c1C(=O)c1c(O)c3c(c(O)c1C2=O)C[C@@](O)(C(=O)CO)C[C@@H]3O[C@H]1C[C@H](N)[C@H](O)[C@H](C)O1` [Example 18, doxorubicin hydrochloride]: the Hygroscopicity result is recorded as “− (a weight-increasing rate of 0.40% or more is shown by an evaluation criterion that the hygroscopicity is large (−))”.
Take `COc1cccc2c1C(=O)c1c(O)c3c(c(O)c1C2=O)C[C@@](O)(C(=O)CO)C[C@@H]3O[C@H]1C[C@H](N)[C@H](O)[C@H](C)O1` [Example 25, doxorubicin hydrochloride]: the Hygroscopicity result is listed as “+ (a weight-increasing rate of less than 0.20% is shown by an evaluation criterion that the hygroscopicity is small: (+))”.
On the same count and under the same terms, as for `COc1cccc2c1C(=O)c1c(O)c3c(c(O)c1C2=O)C[C@@](O)(C(=O)CO)C[C@@H]3O[C@H]1C[C@H](N)[C@H](O)[C@H](C)O1` [Example 26, doxorubicin hydrochloride], the entry is “+ (a weight-increasing rate of less than 0.20% is shown by an evaluation criterion that the hygroscopicity is small: (+))”; as for `COc1cccc2c1C(=O)c1c(O)c3c(c(O)c1C2=O)C[C@@](O)(C(=O)CO)C[C@@H]3O[C@H]1C[C@H](N)[C@H](O)[C@H](C)O1` [Example 27, doxorubicin hydrochloride], “± (a weight-increasing rate of 0.20% or more and less than 0.40% is shown by an evaluation criterion that the hygroscopicity is ;intermediate (±))”; as for `COc1cccc2c1C(=O)c1c(O)c3c(c(O)c1C2=O)C[C@@](O)(C(=O)CO)C[C@@H]3O[C@H]1C[C@H](N)[C@H](O)[C@H](C)O1` [Example 29, doxorubicin hydrochloride], “+ (a weight-increasing rate of less than 0.20% is shown by an evaluation criterion that the hygroscopicity is small: (+))”.
Same read-out and setting: as for `COc1cccc2c1C(=O)c1c(O)c3c(c(O)c1C2=O)C[C@@](O)(C(=O)CO)C[C@@H]3O[C@H]1C[C@H](N)[C@H](O)[C@H](C)O1` [Example 31, doxorubicin hydrochloride], the entry is “+ (a weight-increasing rate of less than 0.20% is shown by an evaluation criterion that the hygroscopicity is small: (+))”; as for `COc1cccc2c1C(=O)c1c(O)c3c(c(O)c1C2=O)C[C@@](O)(C(=O)CO)C[C@@H]3O[C@H]1C[C@H](N)[C@H](O)[C@H](C)O1` [Example 36, doxorubicin hydrochloride], “± (a weight-increasing rate of 0.20% or more and less than 0.40% is shown by an evaluation criterion that the hygroscopicity is ;intermediate (±))”.
Regarding `COc1cccc2c1C(=O)c1c(O)c3c(c(O)c1C2=O)C[C@@](O)(C(=O)CO)C[C@@H]3O[C@H]1C[C@H](N)[C@H](O)[C@H](C)O1` [Example 37, doxorubicin hydrochloride], the Hygroscopicity result is recorded as “+ (a weight-increasing rate of less than 0.20% is shown by an evaluation criterion that the hygroscopicity is small: (+))”.
As to `COc1cccc2c1C(=O)c1c(O)c3c(c(O)c1C2=O)C[C@@](O)(C(=O)CO)C[C@@H]3O[C@H]1C[C@H](N)[C@H](O)[C@H](C)O1` [Example 39, doxorubicin hydrochloride], the Hygroscopicity result was “+ (a weight-increasing rate of less than 0.20% is shown by an evaluation criterion that the hygroscopicity is small: (+))”.
On the same count and under the same terms, the value for `COc1cccc2c1C(=O)c1c(O)c3c(c(O)c1C2=O)C[C@@](O)(C(=O)CO)C[C@@H]3O[C@H]1C[C@H](N)[C@H](O)[C@H](C)O1` [Example 41, doxorubicin hydrochloride] was “+ (a weight-increasing rate of less than 0.20% is shown by an evaluation criterion that the hygroscopicity is small: (+))”; that for `COc1cccc2c1C(=O)c1c(O)c3c(c(O)c1C2=O)C[C@@](O)(C(=O)CO)C[C@@H]3O[C@H]1C[C@H](N)[C@H](O)[C@H](C)O1` [Example 43, doxorubicin hydrochloride] was “+ (a weight-increasing rate of less than 0.20% is shown by an evaluation criterion that the hygroscopicity is small: (+))”.
As to `COc1cccc2c1C(=O)c1c(O)c3c(c(O)c1C2=O)C[C@@](O)(C(=O)CO)C[C@@H]3O[C@H]1C[C@H](N)[C@H](O)[C@H](C)O1` [Example 50, doxorubicin hydrochloride], the Hygroscopicity result is on record as “+ (a weight-increasing rate of less than 0.20% is shown by an evaluation criterion that the hygroscopicity is small: (+))”.
As for `COc1cccc2c1C(=O)c1c(O)c3c(c(O)c1C2=O)C[C@@](O)(C(=O)CO)C[C@@H]3O[C@H]1C[C@H](N)[C@H](O)[C@H](C)O1` [Example 52, doxorubicin hydrochloride], the Hygroscopicity entry is on record as “+ (a weight-increasing rate of less than 0.20% is shown by an evaluation criterion that the hygroscopicity is small: (+))”.
Regarding `COc1cccc2c1C(=O)c1c(O)c3c(c(O)c1C2=O)C[C@@](O)(C(=O)CO)C[C@@H]3O[C@H]1C[C@H](N)[C@H](O)[C@H](C)O1` [Example 53, doxorubicin hydrochloride], the Hygroscopicity entry is recorded as “+ (a weight-increasing rate of less than 0.20% is shown by an evaluation criterion that the hygroscopicity is small: (+))”.
For the compound `COc1cccc2c1C(=O)c1c(O)c3c(c(O)c1C2=O)C[C@@](O)(C(=O)CO)C[C@@H]3O[C@H]1C[C@H](N)[C@H](O)[C@H](C)O1` [Example 54, doxorubicin hydrochloride], the Hygroscopicity result was “+ (a weight-increasing rate of less than 0.20% is shown by an evaluation criterion that the hygroscopicity is small: (+))”.

The next data set can be described thus: Average particle diameter, microscopic method (Heywood circle-corresponding diameter). Conditions: 10 typical crystals on photograph, hydrochloride. Format: physicochemical. The text has this: The average particle diameter is shown by a diameter of a circle having the same area as an injected area of the particle, a so-called Heywood diameter (circle-corresponding diameter) according to a microscopic method (injected image). A small amount of the crystals was put on a slide glass, and 1 to 2 drops of a hydrophilic surfactant (sesquioleic acid sorbitan) were fallen thereon to disperse them. It was photographed by means of a polarization microscope (photographing lens: 3.3 magnifications, objective lens: 20 magnifications) equipped with a photographing device. Optional 10 pieces of the typical crystals were selected on the photograph to measure a long diameter and a short diameter thereof An (projected) area of the particle was shown by long diameter×short diameter, and the particle diameter was shown by a diameter of a circle having the same area as that obtained above.
For the compound `COc1cccc2c1C(=O)c1c(O)c3c(c(O)c1C2=O)C[C@@](O)(C(=O)CO)C[C@@H]3O[C@H]1C[C@H](N)[C@H](O)[C@H](C)O1` [Example 4, doxorubicin hydrochloride], the Average particle diameter was less than 4 μm.
The compound `COc1cccc2c1C(=O)c1c(O)c3c(c(O)c1C2=O)C[C@@](O)(C(=O)CO)C[C@@H]3O[C@H]1C[C@H](N)[C@H](O)[C@H](C)O1` [Example 13, doxorubicin hydrochloride] had an Average particle diameter of less than 4 μm.
In turn, `COc1cccc2c1C(=O)c1c(O)c3c(c(O)c1C2=O)C[C@@](O)(C(=O)CO)C[C@@H]3O[C@H]1C[C@H](N)[C@H](O)[C@H](C)O1` [Example 16, doxorubicin hydrochloride] returned an Average particle diameter of less than 4 μm.

The values above are taken from patent US6653455B1, “Crystallization of doxorubicin hydrochloride” (Mercian Corporation, priority 1998, dated 2003).
